The values that follow come from patent publication US20220408731A1, “MODIFIED ANTIMICROBIAL PEPTIDES” (priority 2021, published 2022).

Each structure is given as a SMILES string. In brackets after ≈: the same amount, converted by molar mass. Where two headings read alike, the source gives them in different places. Bridge positions count the residues as written; N and C are the ends. Peptide text beside a SMILES is read from it.

Assay [1] has as its system Colletotrichum gloeosporioides.
The test system of a further assay is B. cinerea. The assay can be described thus: Drop inoculation assay on detached Nicotiana benthamiana leaves (semi-in planta). Type of assay: in vivo, Botrytis cinerea. The note with it: 48 h; for Reduction of gray mold disease symptoms: detached N. benthamiana leaves, no single concentration stated.
Setting [2] is: unit from method, none in Table 19.

Turning to `C[C@H](NC(=O)CN)C(=O)N[C@H]1CSSC[C@@H](C(N)=O)NC(=O)[C@H](CCCCN)NC(=O)[C@H](CCCCN)NC(=O)[C@H](Cc2ccc(O)cc2)NC(=O)[C@H](Cc2ccccc2)NC(=O)[C@H](Cc2ccccc2)NC(=O)[C@H](Cc2ccccc2)NC(=O)[C@H](C)NC(=O)[C@H](Cc2ccccc2)NC(=O)CNC(=O)[C@H](Cc2ccccc2)NC(=O)CNC(=O)[C@H](CCC(N)=O)NC(=O)[C@H](CCCNC(=N)N)NC(=O)[C@H](Cc2c[nH]cn2)NC1=O` [GMA5CA_V4] (H-GACHRQGFGFAFFFYKKC-NH2; disulfide 3-18; N-terminus assumed), in the assay on Botrytis cinerea, the “MIC (μM) (SFM + 2 mM CaCl2)” value was more than 12 µM, the “MIC (μM) (SFM + 100 mM KCl)” value was more than 12 µM, the “MIC (μM) (SFM + 100 mM NaCl)” value was more than 12 µM and the “MIC (μM) SFM” value amounted to 3 µM (≈ 6.33 µg/mL). Moreover, the “MIC, Alternaria alternata” value in the assay on Alternaria alternata (setting [2]) turned out to be 3 µM (≈ 6.33 µg/mL). The “MIC, Cercospora sojina” value against Cercospora sojina (setting [2]) turned out to be 6 µM (≈ 12.7 µg/mL). Besides, the “MIC, Colletotrichum gloeosporioides” value in assay [1] (setting [2]) is more than 12 µM.
Consider `C[C@@H](O)[C@H](NC(=O)[C@H](CS)NC(=O)[C@H](Cc1ccccc1)NC(=O)[C@H](CS)NC(=O)[C@H](CCCNC(=N)N)NC(=O)[C@H](CCCNC(=N)N)NC(=O)[C@H](CCCNC(=N)N)NC(=O)[C@H](Cc1ccccc1)NC(=O)CNC(=O)[C@H](CCCNC(=N)N)NC(=O)[C@H](CS)NC(=O)[C@H](CCCNC(=N)N)NC(=O)CN)C(=O)N[C@H](C(=O)N[C@@H](Cc1c[nH]cn1)C(=O)N[C@@H](CS)C(=O)O)[C@@H](C)O` [GMA4AC, reference compound] (H-GRCRGFRRRCFCTTHC-OH; N-terminus assumed), for which the “MIC (μM) Botrytis cinerea” value against Botrytis cinerea is 6 µM (≈ 11.8 µg/mL). For the same molecule, the “MIC (μM) Fusarium graminearum” value against Fusarium graminearum came out at 6 µM (≈ 11.8 µg/mL).
Regarding `CC[C@H](C)[C@@H]1NC(=O)[C@H](CCCNC(=N)N)NC(=O)[C@H]([C@@H](C)O)NC(=O)[C@H](Cc2c[nH]c3ccccc23)NC(=O)[C@H](Cc2ccc(O)cc2)NC(=O)[C@H](Cc2c[nH]c3ccccc23)NC(=O)[C@H](CCCNC(=N)N)NC(=O)[C@H](CCCNC(=N)N)NC(=O)[C@H](CCCNC(=N)N)NC(=O)[C@H](Cc2ccccc2)NC(=O)CNC(=O)[C@H](CCCCN)NC(=O)[C@@H](NC(=O)[C@H](CCCNC(=N)N)NC(=O)CNC(=O)CN)CSSC[C@@H](C(N)=O)NC1=O` [GMA4C_V10] (H-GGRCKGFRRRWYWTRIC-NH2; disulfide 4-17; N-terminus assumed), the “Reduction of gray mold disease symptoms” value in the assay on B. cinerea was “effective in reducing gray mold disease symptoms”. For the same molecule, the “Gray mold symptoms, drop inoculation assay” value in the assay on B. cinerea (peptide at 1.5 μM and 3 μM) is “more effective in reducing the symptoms of gray mold than GMA4C_V9”. Also, the “Gray mold symptoms, drop inoculation assay” value in the assay on B. cinerea (peptide at 6 μM) was “completely abrogates gray mold symptoms”. Also, in the assay with Botrytis cinerea, the “MIC (μM) (SFM + 2 mM CaCl2)” value amounted to 3 µM, the “MIC (μM) (SFM + 100 mM KCl)” value lay within 3 to 6 µM, the “MIC (μM) (SFM + 100 mM NaCl)” value was determined as 3 µM and the “MIC (μM) SFM” value was determined as 3 µM (≈ 6.6 µg/mL). For the same molecule, in the assay on Alternaria alternata (setting [2]), the “MIC, Alternaria alternata” value was more than 12 µM. For the same molecule, the “MIC, Cercospora sojina” value against Cercospora sojina (setting [2]) stood at 6 µM (≈ 13.2 µg/mL). Moreover, the “MIC, Colletotrichum gloeosporioides” value in assay [1] (setting [2]) is more than 12 µM.
Consider `CC[C@H](C)[C@@H]1NC(=O)[C@H](CCCNC(=N)N)NC(=O)[C@H]([C@@H](C)O)NC(=O)[C@H](Cc2ccccc2)NC(=O)[C@H](Cc2c[nH]c3ccccc23)NC(=O)[C@H](Cc2ccccc2)NC(=O)[C@H](CCCNC(=N)N)NC(=O)[C@H](CCCNC(=N)N)NC(=O)[C@H](CC(C)C)NC(=O)[C@H](Cc2ccccc2)NC(=O)CNC(=O)[C@H](CCCCN)NC(=O)[C@@H](NC(=O)[C@H](CCCNC(=N)N)NC(=O)CNC(=O)CN)CSSC[C@@H](C(N)=O)NC1=O` [GMA4C_V9] (H-GGRCKGFLRRFWFTRIC-NH2; disulfide 4-17; N-terminus assumed), for which the “Reduction of gray mold disease symptoms” value in the assay on B. cinerea is on record as “effective in reducing gray mold disease symptoms”. In addition, in the assay with Botrytis cinerea, the “MIC (μM) (SFM + 2 mM CaCl2)” value was 12 µM, the “MIC (μM) (SFM + 100 mM KCl)” value lay within 6 to 12 µM, the “MIC (μM) (SFM + 100 mM NaCl)” value is 3 µM and the “MIC (μM) SFM” value amounted to 3 µM (≈ 6.3 µg/mL). Besides, the “MIC, Alternaria alternata” value against Alternaria alternata (setting [2]) was more than 12 µM. Further, the “MIC, Cercospora sojina” value against Cercospora sojina (setting [2]) was found to be 6 µM (≈ 12.6 µg/mL). Further, the “MIC, Colletotrichum gloeosporioides” value in assay [1] (setting [2]) was more than 12 µM.
For the molecule `C[C@@H](O)[C@H](NC(=O)[C@H](CS)NC(=O)[C@H](Cc1ccccc1)NC(=O)[C@H](CS)NC(=O)[C@H](CCCNC(=N)N)NC(=O)[C@H](CCCNC(=N)N)NC(=O)[C@H](CCCNC(=N)N)NC(=O)[C@H](Cc1ccccc1)NC(=O)CNC(=O)[C@H](CCCNC(=N)N)NC(=O)[C@H](CS)NC(=O)[C@H](CCCNC(=N)N)NC(=O)CN)C(=O)N[C@H](C(=O)N[C@@H](Cc1c[nH]cn1)C(=O)N[C@@H](CS)C(N)=O)[C@@H](C)O` [GMA4AC, reference compound] (H-GRCRGFRRRCFCTTHC-NH2), in the assay with Alternaria alternata, the “MIC, Alternaria alternata” value is more than 12 µM. For the same molecule, in the assay with Cercospora sojina, the “MIC, Cercospora sojina” value was more than 12 µM. For the same molecule, the “MIC, Colletotrichum gloeosporioides” value in assay [1] was more than 12 µM.
`C[C@H](NC(=O)CN)C(=O)N[C@H]1CSSC[C@@H](C(N)=O)NC(=O)[C@H](CCCCN)NC(=O)[C@H](CCCCN)NC(=O)[C@H](Cc2ccc(O)cc2)NC(=O)[C@H](Cc2c[nH]c3ccccc23)NC(=O)[C@H](Cc2ccccc2)NC(=O)[C@H](Cc2c[nH]c3ccccc23)NC(=O)[C@H](C)NC(=O)[C@H](Cc2ccccc2)NC(=O)CNC(=O)[C@H](Cc2ccccc2)NC(=O)CNC(=O)[C@H](CCC(N)=O)NC(=O)[C@H](CCCNC(=N)N)NC(=O)[C@H](Cc2c[nH]cn2)NC1=O` [GMA5CA_V3] (H-GACHRQGFGFAWFWYKKC-NH2; disulfide 3-18; N-terminus assumed): in the assay on Botrytis cinerea, the “MIC (μM) (SFM + 2 mM CaCl2)” value was more than 12 µM, the “MIC (μM) (SFM + 100 mM KCl)” value is more than 12 µM, the “MIC (μM) (SFM + 100 mM NaCl)” value was more than 12 µM and the “MIC (μM) SFM” value was 3 µM (≈ 6.57 µg/mL). The “MIC, Alternaria alternata” value against Alternaria alternata (setting [2]) was 3 µM (≈ 6.57 µg/mL). Also, the “MIC, Cercospora sojina” value with Cercospora sojina (setting [2]) was 6 µM (≈ 13.1 µg/mL). In assay [1] (setting [2]), the “MIC, Colletotrichum gloeosporioides” value is more than 12 µM.
